Data published in the supplement of paper PMC10307832.

Assays:
Experiment in all cases: relative viability (nuclei count vs DMSO), 5 days (fraction); higher = more cells survive
SK-MES-1 = tested on: SK-MES-1
In short: (§1)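 Lung cancer cell lines were seeded in 1536-well plates and dosed by pin tool the next day, with either a single drug or a fixed anchor-drug dose combined with five library-drug doses (not always all listed) spaced in √10 steps. Five days later, one step fixed the cells and stained their nuclei (final 0.05% Triton X-100, 1% formaldehyde, 1 ug/ml Hoechst), and nuclei were counted on 4× images. Relative viability is the nuclei count in treated wells divided by the count in vehicle wells, and each value is the median of duplicate plates.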

SK-LU-1 = tested on: SK-LU-1
In short: as §1

HCC-366 = tested on: HCC-366
In short: as §1

NCI-H2228 = tested on: NCI-H2228
In short: as §1

NCI-H2347 = tested on: NCI-H2347
In short: as §1

NCI-H2170 = tested on: NCI-H2170
In short: as §1

NCI-H650 = tested on: NCI-H650
In short: as §1

RERF-LC-KJ = tested on: RERF-LC-KJ
In short: as §1

NCI-H1915 = tested on: NCI-H1915
In short: as §1

LC-2-ad = tested on: LC-2-ad
In short: as §1

NCI-H1975 = tested on: NCI-H1975
In short: as §1

LCLC-103H = tested on: LCLC-103H
In short: as §1

A-427 = tested on: A-427
In short: as §1

NCI-H23 = tested on: NCI-H23
In short: as §1

NCI-H1355 = tested on: NCI-H1355
In short: as §1

SW 1573 = tested on: SW 1573
In short: as §1

NCI-H1755 = tested on: NCI-H1755
In short: as §1

UMC-11 = tested on: UMC-11
In short: as §1

HCC-827 = tested on: HCC-827
In short: as §1

NCI-H1734 = tested on: NCI-H1734
In short: as §1

NCI-H1993 = tested on: NCI-H1993
In short: as §1

NCI-H1792 = tested on: NCI-H1792
In short: as §1

Q: With `CN1CCN(CCOc2cc(OC3CCOCC3)c3c(Nc4c(Cl)ccc5c4OCO5)ncnc3c2)CC1` [Saracatinib] + Cc1nc(NC(=O)N2CCC[C@H]2C(N)=O)sc1-c1ccnc(C(C)(C)C(F)(F)F)c1 [Alpelisib] (partner 2 µM) as the compound, how does the relative viability (SK-MES-1; first compound 0.02 µM) read?
A: The relative viability was 0.713.

Q: What about the relative viability (SK-MES-1; first compound 0.2 µM) of the same compound?
A: The relative viability was 0.77.

Q: And the relative viability (SK-MES-1; first compound 0.6325 µM)?
A: Its relative viability is 0.76.

Q: And the relative viability (SK-MES-1; first compound 2 µM)?
A: The relative viability was 0.644.

Q: What about the relative viability (SK-LU-1; first compound 0.02 µM) of the same compound?
A: Its relative viability is 0.634.

Q: And the relative viability (SK-LU-1; first compound 0.2 µM)?
A: The relative viability was 0.673.

Q: And the relative viability (SK-LU-1; first compound 0.6325 µM)?
A: Its relative viability is 0.44.

Q: And the relative viability (SK-LU-1; first compound 2 µM)?
A: Its relative viability is 0.297.

Q: And the relative viability (HCC-366; first compound 0.02 µM)?
A: The relative viability was 0.429.

Q: What about the relative viability (HCC-366; first compound 0.6325 µM) of the same compound?
A: The relative viability was 0.272.

Q: What about the relative viability (HCC-366; first compound 2 µM) of the same compound?
A: The relative viability was 0.152.

Q: What about the relative viability (NCI-H2228; first compound 0.02 µM) of the same compound?
A: The relative viability was 0.734.

Q: And the relative viability (NCI-H2228; first compound 0.2 µM)?
A: The relative viability was 0.562.

Q: What about the relative viability (NCI-H2228; first compound 0.6325 µM) of the same compound?
A: Its relative viability is 0.532.

Q: What about the relative viability (NCI-H2228; first compound 2 µM) of the same compound?
A: Its relative viability is 0.365.

Q: And the relative viability (NCI-H2347; first compound 0.02 µM)?
A: The relative viability was 1.03.

Q: And the relative viability (NCI-H2347; first compound 0.2 µM)?
A: The relative viability was 0.835.

Q: What about the relative viability (NCI-H2347; first compound 0.6325 µM) of the same compound?
A: The relative viability was 1.12.

Q: What about the relative viability (NCI-H2347; first compound 2 µM) of the same compound?
A: Its relative viability is 0.902.

Q: What about the relative viability (NCI-H2170; first compound 0.02 µM) of the same compound?
A: Its relative viability is 0.731.

Q: And the relative viability (NCI-H2170; first compound 0.2 µM)?
A: Its relative viability is 0.749.

Q: What about the relative viability (NCI-H2170; first compound 0.6325 µM) of the same compound?
A: Its relative viability is 0.752.

Q: And the relative viability (NCI-H2170; first compound 2 µM)?
A: The relative viability was 0.464.

Q: What about the relative viability (NCI-H650; first compound 0.02 µM) of the same compound?
A: The relative viability was 1.14.

Q: And the relative viability (NCI-H650; first compound 0.2 µM)?
A: The relative viability was 0.814.

Q: What about the relative viability (NCI-H650; first compound 0.6325 µM) of the same compound?
A: The relative viability was 1.21.

Q: And the relative viability (NCI-H650; first compound 2 µM)?
A: The relative viability was 1.13.

Q: And the relative viability (RERF-LC-KJ; first compound 0.02 µM)?
A: Its relative viability is 0.894.

Q: What about the relative viability (RERF-LC-KJ; first compound 0.2 µM) of the same compound?
A: The relative viability was 0.954.

Q: What about the relative viability (RERF-LC-KJ; first compound 0.6325 µM) of the same compound?
A: Its relative viability is 0.831.

Q: What about the relative viability (RERF-LC-KJ; first compound 2 µM) of the same compound?
A: Its relative viability is 0.662.

Q: What about the relative viability (NCI-H1915; first compound 0.02 µM) of the same compound?
A: Its relative viability is 1.04.

Q: What about the relative viability (NCI-H1915; first compound 0.2 µM) of the same compound?
A: The relative viability was 0.552.

Q: And the relative viability (NCI-H1915; first compound 0.6325 µM)?
A: The relative viability was 1.07.

Q: What about the relative viability (NCI-H1915; first compound 2 µM) of the same compound?
A: Its relative viability is 1.01.

Q: And the relative viability (LC-2-ad; first compound 0.02 µM)?
A: The relative viability was 0.903.

Q: And the relative viability (LC-2-ad; first compound 0.6325 µM)?
A: Its relative viability is 0.882.

Q: And the relative viability (LC-2-ad; first compound 2 µM)?
A: The relative viability was 0.691.

Q: And the relative viability (NCI-H1975; first compound 0.02 µM)?
A: Its relative viability is 0.671.

Q: What about the relative viability (NCI-H1975; first compound 0.6325 µM) of the same compound?
A: The relative viability was 0.585.

Q: What about the relative viability (NCI-H1975; first compound 2 µM) of the same compound?
A: The relative viability was 0.367.

Q: And the relative viability (LCLC-103H; first compound 0.02 µM)?
A: The relative viability was 0.972.

Q: And the relative viability (LCLC-103H; first compound 0.2 µM)?
A: The relative viability was 0.831.

Q: And the relative viability (LCLC-103H; first compound 0.6325 µM)?
A: Its relative viability is 0.899.

Q: And the relative viability (LCLC-103H; first compound 2 µM)?
A: Its relative viability is 0.893.

Q: And the relative viability (A-427; first compound 0.02 µM)?
A: Its relative viability is 1.09.

Q: What about the relative viability (A-427; first compound 0.2 µM) of the same compound?
A: The relative viability was 0.916.

Q: And the relative viability (A-427; first compound 0.6325 µM)?
A: The relative viability was 1.07.

Q: And the relative viability (A-427; first compound 2 µM)?
A: The relative viability was 1.01.

Q: And the relative viability (NCI-H23; first compound 0.02 µM)?
A: The relative viability was 0.616.

Q: And the relative viability (NCI-H23; first compound 0.6325 µM)?
A: Its relative viability is 0.752.

Q: What about the relative viability (NCI-H23; first compound 2 µM) of the same compound?
A: The relative viability was 0.526.

Q: And the relative viability (NCI-H1355; first compound 0.02 µM)?
A: Its relative viability is 0.848.

Q: What about the relative viability (NCI-H1355; first compound 0.2 µM) of the same compound?
A: The relative viability was 0.833.

Q: And the relative viability (NCI-H1355; first compound 0.6325 µM)?
A: Its relative viability is 0.861.

Q: What about the relative viability (NCI-H1355; first compound 2 µM) of the same compound?
A: Its relative viability is 0.794.

Q: What about the relative viability (SW 1573; first compound 0.02 µM) of the same compound?
A: The relative viability was 0.83.

Q: What about the relative viability (SW 1573; first compound 0.2 µM) of the same compound?
A: The relative viability was 0.689.

Q: What about the relative viability (SW 1573; first compound 0.6325 µM) of the same compound?
A: The relative viability was 0.833.

Q: What about the relative viability (SW 1573; first compound 2 µM) of the same compound?
A: Its relative viability is 0.51.

Q: What about the relative viability (NCI-H1755; first compound 0.02 µM) of the same compound?
A: The relative viability was 0.928.

Q: And the relative viability (NCI-H1755; first compound 0.2 µM)?
A: The relative viability was 0.709.

Q: And the relative viability (NCI-H1755; first compound 0.6325 µM)?
A: Its relative viability is 0.864.

Q: What about the relative viability (NCI-H1755; first compound 2 µM) of the same compound?
A: The relative viability was 0.712.

Q: And the relative viability (UMC-11; first compound 0.02 µM)?
A: Its relative viability is 0.99.

Q: What about the relative viability (UMC-11; first compound 0.6325 µM) of the same compound?
A: The relative viability was 1.03.

Q: What about the relative viability (UMC-11; first compound 2 µM) of the same compound?
A: Its relative viability is 0.768.

Q: And the relative viability (HCC-827; first compound 0.02 µM)?
A: Its relative viability is 0.922.

Q: And the relative viability (HCC-827; first compound 0.2 µM)?
A: Its relative viability is 0.524.

Q: And the relative viability (HCC-827; first compound 0.6325 µM)?
A: The relative viability was 0.195.

Q: What about the relative viability (HCC-827; first compound 2 µM) of the same compound?
A: Its relative viability is 0.157.

Q: And the relative viability (NCI-H1734; first compound 0.02 µM)?
A: Its relative viability is 0.669.

Q: What about the relative viability (NCI-H1734; first compound 0.6325 µM) of the same compound?
A: Its relative viability is 0.646.

Q: What about the relative viability (NCI-H1734; first compound 2 µM) of the same compound?
A: Its relative viability is 0.507.

Q: What about the relative viability (NCI-H1993; first compound 0.02 µM) of the same compound?
A: The relative viability was 0.68.

Q: What about the relative viability (NCI-H1993; first compound 0.2 µM) of the same compound?
A: Its relative viability is 0.531.

Q: What about the relative viability (NCI-H1993; first compound 2 µM) of the same compound?
A: Its relative viability is 0.656.

Q: What about the relative viability (NCI-H1792; first compound 0.02 µM) of the same compound?
A: Its relative viability is 0.706.

Q: What about the relative viability (NCI-H1792; first compound 0.2 µM) of the same compound?
A: The relative viability was 0.492.

Q: And the relative viability (NCI-H1792; first compound 0.6325 µM)?
A: Its relative viability is 0.929.

Q: What about the relative viability (NCI-H1792; first compound 2 µM) of the same compound?
A: Its relative viability is 0.608.
